Literature values in US20140205688A1, “STIMULATING AGENT AND STIMULATING COMPOSITION” (priority 2011, published 2014).

System: humans
Settings: humans took in / absorbed the substance

SMILES	amplitude of CNV
O=C1CN=C(c2ccccc2)c2cc([N+](=O)[O-])ccc2N1 [Nitrazepam]	declined
Cn1c(=O)c2c(ncn2C)n(C)c1=O [caffeine]	increased
